The values that follow come from patent US20110082148A1, “TREATING, PREVENTING OR AMELIORATING A HYPERPROLIFERATIVE DISEASE/DISORDER” (priority 2009, published 2011).

One series deals with HL60 xenograft. Format: in vivo. As for the experimental part: FIG. 4(b) illustrates the tumor volume growth of HL60 xenograft over time after treatment with cinoxacin in dosages of 100 mg/kg and 300 mg/kg as compared to control sample.
FIGS. 4(a) and (b) show the tumor volume growth of an HL60 xenograft over time after treatment with cinoxacin in different dosages as compared to a control sample. The cinoxacin was obtained from Signma Aldrich (MOL_ID—1), and solubilized in […] and phosphate buffered saline and administered […] to test mice. […] The treatment regimen was implemented as 3 day+3 day, with an ip single injection each day. Tumor volume was measured by ruler. […] The mice were provided a single dose daily for ten consecutive days. […] It is believed that higher dosages could also be used without incurring detrimental effects.

The subject of series [1] is RPMI-8226-luc human myeloma xenografts. Put plainly: RPMI-8226-luc human myeloma xenografts in NSG mice, survival. Type of series: in vivo, NOD scid gamma (NSG) mice. To be noted: for survival time: controls all died before 20 days. The source says: FIG. 5(a) illustrates the photons/sec/cm^2×10^−6 present over time in RPMI-8226-luc human myeloma xenografts in NSG mice.
FIG. 5(b) illustrates the percentage of male and female mice survival over time when provided varying dosage amounts of cinoxacin as compared to a control sample.
FIG. 5(b) illustrates the survival percentage of male and female mice when treated with various dosages of cinoxacin for a period of 10 to 40 days. FIGS. 5(a) and (b) display that the controls all died before 20 days had passed. The females died around 25 days; however, all the males survived for 40 days when treatment was stopped. […] By the time the drug was administered, the concentration of myeloma cells in female mice had reached about 9×10^6, which appears to be beyond repair.
(A xenograft is tissue or cells of one species grown in another, often human tumour cells in immunodeficient mice.)

Series [2] is described as follows: Administration to mice, adverse side effects. Type of series: in vivo. To be noted: from about 25 mg/kg to about 15 mg/kg. The source says: However, in any given case, the amount of the compound administered will depend on such factors as the solubility of the active component, the formulation used, subject condition (such as weight), and/or the route of administration.

Series [3] has as its system National Cancer Institute 60 cell line. As to the kind of experiment: National Cancer Institute 60 cell line one dose test. Format: cell-based. Conditions: NCI 60 cell line, across many cell lines. The protocol: FIG. 1 illustrates a National Cancer Institute 60 cell line one dose mean graph for erdosteine. […] A National Cancer Institute 60 cell line test was performed using erdosteine. FIG. 1 illustrates the effectiveness of the erdosteine at inhibiting cancer cell growth in several cell lines. […] A National Cancer Institute 60 cell line test was performed using cinoxacin. FIG. 2 illustrates the effectiveness of the cinoxacin at inhibiting cancer cell growth in several cell lines is shown.

On to `CCn1nc(C(=O)O)c(=O)c2cc3c(cc21)OCO3` [cinoxacin], for which the tumor volume increase entry in the series with HL60 xenograft (FIG. 4(a), 100 mg/kg compared to 25 mg/kg and 50 mg/kg, 3 day+3 day, single injection each day) is listed as “slower tumor volume increase”. The “growth of Leukemic cells (tumor volume growth)” value with HL60 xenograft (FIG. 4(b), 100 mg/kg and 300 mg/kg vs control, single dose daily for ten consecutive days, particularly at 200 mg/kg) is “substantial slowing down of the growth of Leukemic cells”. In addition, the survival time result in series [1] (female mice treated with cinoxacin) is given as “around 25 days”; in series [1] (male mice treated with cinoxacin, treatment stopped at 40 days) it was ≥ 40 days. For the same molecule, the “survival compared to female mice and controls” value in series [1] (male mice, 1500 mg/kg/day) is listed as “survival was prolonged”. Also, the adverse side effects result in series [2] is recorded as “without adverse side effects”. Also, the “cell growth compared with control specimen” value in series [3] is “lower than in a control specimen”.
As to `O=C(O)CSCC(=O)NC1CCSC1=O` (stereo not drawn) [erdosteine], the adverse side effects result in series [2] is on record as “without adverse side effects”. In addition, the “cell growth compared with control specimen” value in series [3] is listed as “lower than in a control specimen”.
